In ChEMBL document CHEMBL3046846, “Synthesis of N-Alkyl-2, 3-dimethyl-5-[N-(5-halo-2-methylphenyl)carbamoyl]-6-pyrazinecarboxamides and Their Herbicidal Activity” (J Pestic Sci, 1997):

Columns and labels:
[1] = tested on: Veronica persica; assay: Herbicidal activity against Veronica persica at 500 g/ha after 2 weeks; type: functional
[2] = tested on: Galium spurium; assay: Herbicidal activity against Galium spurium var. echinospermon (Wally.) Hayek at 500 g/ha after 2 weeks; type: functional
[3] = tested on: Xanthium strumarium; assay: Herbicidal activity against Xanthium strumarium (cocklebur) 500 g/ha after 2 weeks; type: functional
[4] = tested on: Abutilon theophrasti; assay: Herbicidal activity against Abutilon theophrasti (velvetleaf) at 500 g/ha after 2 weeks; type: functional
[5] = tested on: Avena fatua; assay: Herbicidal activity against Avena fatua at 500 g/ha after 2 weeks; type: functional
[6] = tested on: Echinochloa crus-galli; assay: Herbicidal activity against Echinochloa crus-galli (barnyard grass) at 500 g/ha after 2 weeks; type: functional
[7] = tested on: Glycine max; assay: Herbicidal activity against Glycine max (soybean) at 500 g/ha after 2 weeks; type: organism-based; settings: in vivo, 336 h
[8] = tested on: Triticum aestivum; assay: Herbicidal activity against Triticum aestivum (wheat) at 500 g/ha after 2 weeks; type: ADME, organism-based; settings: in vivo, 336 h
[9] = tested on: Veronica persica; assay: Herbicidal activity against Veronica persica at 250 g/ha after 2 weeks; type: functional
[10] = tested on: Galium spurium; assay: Herbicidal activity against Galium spurium var. echinospermon (Wally.) Hayek at 250 g/ha after 2 weeks; type: functional
[11] = tested on: Xanthium strumarium; assay: Herbicidal activity against Xanthium strumarium (cocklebur) 250 g/ha after 2 weeks; type: functional
[12] = tested on: Abutilon theophrasti; assay: Herbicidal activity against Abutilon theophrasti (velvetleaf) at 250 g/ha after 2 weeks; type: functional
[13] = tested on: Echinochloa crus-galli; assay: Herbicidal activity against Echinochloa crus-galli (barnyard grass) at 250 g/ha after 2 weeks; type: functional
[14] = tested on: Avena fatua; assay: Herbicidal activity against Avena fatua at 250 g/ha after 2 weeks; type: functional
[15] = tested on: Glycine max; assay: Herbicidal activity against Glycine max (soybean) at 250 g/ha after 2 weeks; type: organism-based; settings: in vivo, 336 h
[16] = tested on: Triticum aestivum; assay: Herbicidal activity against Triticum aestivum (wheat) at 250 g/ha after 2 weeks; type: organism-based; settings: in vivo, 336 h
[17] = tested on: Veronica persica; assay: Herbicidal activity against Veronica persica at 5000 g/ha after 2 weeks; type: functional
[18] = tested on: Galium spurium; assay: Herbicidal activity against Galium spurium var. echinospermon (Wally.) Hayek at 5000 g/ha after 2 weeks; type: functional
[19] = tested on: Xanthium strumarium; assay: Herbicidal activity against Xanthium strumarium (cocklebur) 5000 g/ha after 2 weeks; type: functional
[20] = tested on: Abutilon theophrasti; assay: Herbicidal activity against Abutilon theophrasti (velvetleaf) at 5000 g/ha after 2 weeks; type: functional
[21] = tested on: Echinochloa crus-galli; assay: Herbicidal activity against Echinochloa crus-galli (barnyard grass) at 5000 g/ha after 2 weeks; type: functional
[22] = tested on: Avena fatua; assay: Herbicidal activity against Avena fatua at 5000 g/ha after 2 weeks; type: functional
[23] = tested on: Glycine max; assay: Herbicidal activity against Glycine max (soybean) at 5000 g/ha after 2 weeks; type: organism-based; settings: in vivo, 336 h
[24] = tested on: Triticum aestivum; assay: Herbicidal activity against Triticum aestivum (wheat) at 5000 g/ha after 2 weeks; type: ADME, organism-based; settings: in vivo, 336 h

SMILES | Activity [1] [%] | Activity [2] [%] | Activity [3] [%] | Activity [4] [%] | Activity [5] [%] | Activity [6] [%] | Activity [7] [%] | Activity [8] [%] | Activity [9] [%] | Activity [10] [%] | Activity [11] [%] | Activity [12] [%] | Activity [13] [%] | Activity [14] [%] | Activity [15] [%] | Activity [16] [%] | Activity [17] [%] | Activity [18] [%] | Activity [19] [%] | Activity [20] [%] | also measured
Cc1ccc(Cl)cc1NC(=O)c1nc(C)c(C)nc1C(=O)NCC(C)C | 95 | <10 | <10 | <10 | <10 | 30 | < 10 | < 10 | 30 | <10 | <10 | <10 | <10 | <10 | < 10 | < 10 | 95 | 95 | 95 | 95 | Activity [21]: 95%; Activity [22]: 95%; Activity [23]: < 10%; Activity [24]: 70%
CCCNC(=O)c1nc(C)c(C)nc1C(=O)Nc1cc(Cl)ccc1C | 70 | <10 | 50 | <10 | <10 | <10 | < 10 | < 10 | 95 | <10 | <10 | <10 | <10 | <10 | < 10 | < 10 | 95 | 50 | 30 | 95 | Activity [21]: 50%; Activity [22]: <10%; Activity [23]: < 10%; Activity [24]: 30%
CC[C@@H](C)NC(=O)c1nc(C)c(C)nc1C(=O)Nc1cc(F)ccc1C | 95 | 30 | 50 | 95 | <10 | 30 | < 10 | < 10 | 30 | <10 | <10 | 30 | <10 | <10 | < 10 | < 10 | 95 | 70 | 70 | 95 | Activity [21]: 30%; Activity [22]: 30%; Activity [23]: < 10%; Activity [24]: 50%
CCCCNC(=O)c1nc(C)c(C)nc1C(=O)Nc1cc(F)ccc1C | 95 | <10 | <10 | <10 | <10 | 10 | < 10 | 30 | 95 | <10 | <10 | <10 | <10 | <10 | < 10 | < 10 | 95 | 30 | 50 | 95 | Activity [21]: 70%; Activity [22]: <10%; Activity [23]: < 10%; Activity [24]: 30%
CC[C@H](C)NC(=O)c1nc(C)c(C)nc1C(=O)Nc1cc(F)ccc1C | 70 | <10 | <10 | <10 | <10 | <10 | < 10 | < 10 | 70 | <10 | <10 | <10 | <10 | <10 | < 10 | < 10 | 95 | 95 | 95 | 70 | Activity [21]: 70%; Activity [22]: 50%; Activity [23]: < 10%; Activity [24]: 30%
